In the Kinase Knowledgebase extract (Sharma et al. 2016):

Target: MAPK14 (human) (UniProt Q16539)
Assay: Inhibition of MAPK14 Kinase Activity

MAPK14 (human), sequence (Q16539 whole entry, looked up): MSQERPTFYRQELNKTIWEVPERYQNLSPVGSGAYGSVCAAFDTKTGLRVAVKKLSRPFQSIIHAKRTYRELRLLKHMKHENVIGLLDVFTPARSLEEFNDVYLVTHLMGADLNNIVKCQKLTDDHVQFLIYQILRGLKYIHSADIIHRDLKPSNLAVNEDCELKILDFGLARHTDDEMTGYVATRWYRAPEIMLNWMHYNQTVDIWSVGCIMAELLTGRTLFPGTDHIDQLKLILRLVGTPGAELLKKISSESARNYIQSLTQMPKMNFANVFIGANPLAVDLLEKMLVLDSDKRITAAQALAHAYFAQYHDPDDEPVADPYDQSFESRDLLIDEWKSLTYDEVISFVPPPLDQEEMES

SMILES | IC50
CC(C)(C)Cn1c(N)nc2ccc(-c3nc(-c4c(Cl)cccc4Cl)[nH]c3-c3ccc(F)cc3F)cc21 | ≤ 5 µM
C[C@@H](n1c(N)nc2ccc(-c3[nH]c(C(C)(C)C)nc3-c3ccccc3)cc21)C(C)(C)C | ≤ 5 µM
CC(C)Cn1c(N)nc2ccc(-c3c[nH]nc3-c3ccccc3)cc21 | ≤ 5 µM
CC(C)Cn1c(N)nc2ccc(-c3c(-c4ccc(F)cc4)ncn3C)cc21 | ≤ 5 µM
CC(C)Cn1c(N)nc2ccc(-c3cn(-c4ccccc4F)nc3-c3ccccc3)cc21 | ≤ 5 µM
CC(C)n1cnc2ccc(-c3n[nH]nc3-c3ccccc3)cc21 | ≤ 5 µM
CC(C)(C)Cn1c(N)nc2ccc(-c3[nH]c(C4CC4)nc3-c3ccc(F)cc3F)cc21 | ≤ 5 µM
CC(C)(C)Cn1c(N)nc2ccc(-c3[nH]c(-c4c(F)cccc4Cl)nc3-c3ccccc3)cc21 | ≤ 5 µM
CC(C)Cn1c(N)nc2ccc(-c3cn(C)nc3-c3ccc(F)cc3)cc21 | ≤ 5 µM
Cc1nc(-c2ccc(F)cc2F)c(-c2ccc3nc(N)n(CC(C)C)c3c2)[nH]1 | ≤ 5 µM
Nc1nc2ccc(-c3[nH]c(-c4c(F)cccc4F)nc3-c3ccccc3)cc2n1Cc1ccccc1 | ≤ 5 µM
C[C@@H](n1c(N)nc2ccc(-c3[nH]c(-c4c(F)cccc4Cl)nc3-c3ccccc3)cc21)C(C)(C)C | ≤ 5 µM
CC(C)(C)Cn1c(N)nc2ccc(-c3[nH]c(C(C)(C)C)nc3-c3ccc(F)cc3F)cc21 | ≤ 5 µM
CC(C)n1cnc2ccc(-c3[nH]c(-c4c(F)cccc4F)nc3-c3ccccc3)cc21 | ≤ 5 µM
CC(C)Cn1c(N)nc2ccc(-c3c[nH]nc3-c3ccc(F)cc3F)cc21 | ≤ 5 µM
CC(C)(C)Cn1c(N)nc2ccc(-c3[nH]c(-c4c(F)cccc4C(F)(F)F)nc3-c3ccccc3)cc21 | ≤ 5 µM

SMILES | IC50
Nc1nc2ccc(-c3[nH]c(-c4c(F)cccc4F)nc3-c3ccccc3)cc2n1C1CCCC1 | ≤ 5 µM
CCC(CC)n1c(N)nc2ccc(-c3[nH]c(-c4c(F)cccc4F)nc3-c3ccccc3)cc21 | ≤ 5 µM
Nc1nc2ccc(-c3nc(-c4ccc(F)cc4F)[nH]c3-c3c(F)cccc3C(F)(F)F)cc2n1CC1CC1 | ≤ 5 µM
Nc1nc2ccc(-c3[nH]c(-c4c(F)cccc4F)nc3-c3ccccc3)cc2n1CC1CC1 | ≤ 5 µM
Cn1cnc2ccc(-c3[nH]c(-c4c(F)cccc4F)nc3-c3ccccc3)cc21 | ≤ 5 µM
Clc1ccc(-c2nc(-c3ccccc3)c(-c3ccc4ncn(CC5CC5)c4c3)[nH]2)cc1 | ≤ 5 µM
CC(C)Cn1c(N)nc2ccc(-c3c(-c4ccc(F)cc4)nc4n3CCC4)cc21 | ≤ 5 µM
CC(C)Cn1c(N)nc2ccc(-c3[nH]c(C(C)C)nc3-c3ccccc3)cc21 | ≤ 5 µM
CC(C)Cn1c(N)nc2ccc(-c3[nH]c(-c4c(F)cccc4F)nc3-c3ccccc3)cc21 | ≤ 5 µM
c1ccc(-c2nc(-c3ccc(OCCN4CCCCC4)cc3)[nH]c2-c2ccc3ncn(CC4CC4)c3c2)cc1 | ≤ 5 µM
CC(C)Cn1c(N)nc2ccc(-c3[nH]c(-c4ccccc4C(F)(F)F)nc3-c3ccc(F)cc3)cc21 | ≤ 5 µM
Cc1nc(-c2ccccc2)c(-c2ccc3nc(N)n(CC(C)C)c3c2)[nH]1 | ≤ 5 µM
CC(C)Cn1c(N)nc2ccc(-c3cn(C(C)C)nc3-c3ccc(F)cc3)cc21 | ≤ 5 µM
CC(C)Cn1c(N)nc2ccc(-c3[nH]c(-c4ccccc4C(F)(F)F)nc3-c3ccccc3)cc21 | ≤ 5 µM
CCCn1c(N)nc2ccc(-c3[nH]c(-c4c(F)cccc4F)nc3-c3ccccc3)cc21 | ≤ 5 µM

Other lines, results leading:

IC50 | SMILES
≤ 5 µM | CC(C)Cn1c(N)nc2ccc(-c3[nH]c(C4CC4)nc3-c3ccc(F)cc3F)cc21
≤ 5 µM | Fc1cccc(F)c1-c1nc(-c2ccccc2)c(-c2ccc3ncn(CC4CC4)c3c2)[nH]1
≤ 5 µM | Fc1cccc(F)c1-c1nc(-c2ccccc2)c(-c2ccc3nc[nH]c3c2)[nH]1
≤ 5 µM | CC(C)Cn1c(N)nc2cc(-c3[nH]c(-c4c(F)cccc4Cl)nc3-c3ccccc3)ccc21
≤ 5 µM | CC(C)Cn1c(N)nc2ccc(-c3c(-c4ccccc4)nc(C4CC4)n3C)cc21
≤ 5 µM | CC(C)Cn1cnc2ccc(-c3[nH]c(-c4c(F)cccc4F)nc3-c3ccccc3)cc21
≤ 5 µM | CC(C)Cn1c(N)nc2ccc(-c3cn(C(C)(C)C)nc3-c3ccccc3)cc21
≤ 5 µM | CCOCN1=NC(=C(N1)c2ccc3nc(N)n(CC(C)C)c3c2)c4ccccc4
≤ 5 µM | CC(C)Cn1c(N)nc2ccc(-c3nc(-c4c(Cl)cccc4Cl)[nH]c3-c3ccccc3)cc21
≤ 5 µM | CC(C)Cn1c(N)nc2ccc(-c3[nH]c(-c4c(Cl)cccc4Cl)nc3-c3ccc(F)cc3F)cc21
≤ 5 µM | Cc1nc2ccc(-c3nc(-c4c(F)cccc4F)[nH]c3-c3ccccc3)cc2n1CC(C)C
≤ 5 µM | CC(C)(C)Cn1c(N)nc2ccc(-c3[nH]c(C4CC4)nc3-c3ccccc3)cc21
≤ 5 µM | CC(C)(C)Cn1c(N)nc2ccc(-c3[nH]c(-c4c(F)cccc4Cl)nc3-c3ccc(F)cc3F)cc21
≤ 5 µM | Cc1nc(-c2ccc(F)cc2F)c(-c2ccc3nc(N)n(C(C)C(C)C)c3c2)[nH]1 (configuration not stated)
≤ 5 µM | C[C@@H](n1c(N)nc2ccc(-c3[nH]c(-c4c(Cl)cccc4Cl)nc3-c3ccccc3)cc21)C(C)(C)C
≤ 5 µM | C[C@@H](n1c(N)nc2ccc(-c3[nH]c(-c4c(F)cccc4F)nc3-c3ccccc3)cc21)C(C)(C)C
